Legend:
[1] = target: T1, 5-hydroxytryptamine receptor 1A (Rattus norvegicus, UniProt P19327); assay: Binding affinity to 5-hydroxytryptamine 1A receptor (5-HT 1A receptor, serotonin receptor) from rat cortex using [3H]8-OH-DPAT as radioligand
T1 sequence (P19327 whole entry): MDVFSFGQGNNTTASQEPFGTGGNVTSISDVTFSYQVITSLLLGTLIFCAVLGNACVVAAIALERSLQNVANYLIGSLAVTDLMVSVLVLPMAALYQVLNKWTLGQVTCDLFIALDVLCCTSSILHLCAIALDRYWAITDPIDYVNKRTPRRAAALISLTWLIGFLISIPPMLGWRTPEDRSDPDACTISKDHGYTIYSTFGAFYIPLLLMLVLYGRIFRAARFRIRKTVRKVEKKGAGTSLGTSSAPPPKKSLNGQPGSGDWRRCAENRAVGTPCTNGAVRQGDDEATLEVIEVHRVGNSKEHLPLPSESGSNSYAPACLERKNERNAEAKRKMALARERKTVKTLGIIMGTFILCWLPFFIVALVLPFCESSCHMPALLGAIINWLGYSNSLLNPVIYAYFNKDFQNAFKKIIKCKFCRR

[2] = target: Sodium-dependent serotonin transporter (Rattus norvegicus, UniProt P31652); assay: Binding affinity towards Serotonin transporter from rat cortex measured using [3H]paroxetine; details: read-out: Ki
Sequence of Sodium-dependent serotonin transporter (P31652 whole entry): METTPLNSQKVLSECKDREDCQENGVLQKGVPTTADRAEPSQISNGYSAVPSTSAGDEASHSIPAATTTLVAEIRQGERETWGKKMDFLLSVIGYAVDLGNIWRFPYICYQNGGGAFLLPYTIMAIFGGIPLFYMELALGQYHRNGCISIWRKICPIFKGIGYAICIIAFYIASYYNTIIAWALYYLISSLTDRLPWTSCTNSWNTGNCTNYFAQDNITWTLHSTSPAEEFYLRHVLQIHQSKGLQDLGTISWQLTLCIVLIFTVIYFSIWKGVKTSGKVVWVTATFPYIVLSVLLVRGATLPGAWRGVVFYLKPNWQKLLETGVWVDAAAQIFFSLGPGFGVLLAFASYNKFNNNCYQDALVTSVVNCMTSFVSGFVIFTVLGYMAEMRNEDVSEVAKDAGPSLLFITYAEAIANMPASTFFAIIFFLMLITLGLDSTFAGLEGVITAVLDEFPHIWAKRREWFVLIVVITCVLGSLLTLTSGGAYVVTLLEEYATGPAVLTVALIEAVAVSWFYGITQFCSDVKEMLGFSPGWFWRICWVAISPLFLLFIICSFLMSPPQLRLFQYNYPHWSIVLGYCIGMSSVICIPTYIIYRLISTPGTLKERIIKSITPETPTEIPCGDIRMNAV

Structure (SMILES) | Ki [1] [nM] | Ki [2] [nM] | Ki ([1]; read-out: Ki) [nM]
COc1ccccc1N1CCN(CCC(Oc2ccc(C(F)(F)F)cc2)c2ccsc2)CC1 (centres undefined) | 255 | 460 | 
O=C(CCN1CCN(c2ccc(Cl)cc2)CC1)c1ccsc1 |  | 220 | 
OC(CCN1CCN(c2ccc(F)cc2)CC1)c1ccccc1 (centres undefined) | 145 | 4700 | 
COc1ccccc1N1CCN(CCC(Oc2ccc(C(F)(F)F)cc2)c2ccc(-c3ccccc3)cc2)CC1 (centres undefined) |  | > 5000 | > 5000
O=C(CCN1CCN(c2ccccc2Cl)CC1)c1ccsc1 |  | > 5000 | 200
O=[N+]([O-])c1ccc(N2CCN(CCC(Oc3ccc(C(F)(F)F)cc3)c3ccccc3)CC2)cc1 (centres undefined) |  | 2500 | > 5000
O=C(CCN1CCN(c2ccc(Cl)cc2)CC1)c1ccc2ccccc2c1 |  | 240 | > 5000
O=C(CCN1CCN(c2ccc(Cl)cc2)CC1)c1cccs1 |  | 60 | > 5000
O=C(CCN1CCN(c2cccc3ccccc23)CC1)c1ccsc1 | 35 | 800 | 
OC(CCN1CCN(c2ccc(Cl)cc2)CC1)c1cccs1 (centres undefined) |  | 290 | > 5000
COc1ccccc1N1CCN(CCC(Oc2cccc3ccccc23)c2cccs2)CC1 (centres undefined) | 220 | > 5000 | 
COc1cc(Cl)ccc1N1CCN(CCC(=O)c2csc3ccccc23)CC1 |  | 275 | 500
COc1cc(F)ccc1N1CCN(CCC(=O)c2csc3ccccc23)CC1 |  | 500 | 500
Cc1cc(C(=O)CCN2CCN(c3ccccc3O)CC2)c(C)s1 | 7.5 | 800 | 
COc1cc(Cl)ccc1N1CCN(CCC(O)c2csc3ccccc23)CC1 (centres undefined) | 361 | 35 | 
COc1ccc(N2CCN(CCC(O)c3ccccc3)CC2)cc1 (centres undefined) |  | 1150 | > 5000
Fc1ccc(N2CCN(CCC(Oc3ccc(C(F)(F)F)cc3)c3ccccc3)CC2)cc1 (centres undefined) |  | 500 | > 5000
FC(F)(F)c1ccc(OC(CCN2CCN(c3ccc(Cl)cc3)CC2)c2ccccc2)cc1 (centres undefined) |  | 350 | > 5000
Clc1ccc(N2CCN(CCC(Oc3ccc4c(c3)OCO4)c3ccccc3)CC2)cc1 (centres undefined) | 550 | 375 | 
O=C(CCN1CCN(c2ccc([N+](=O)[O-])cc2)CC1)c1ccccc1 |  | > 5000 | > 5000
COc1cc(F)ccc1N1CCN(CCC(=O)c2cc(C)sc2C)CC1 |  | 750 | 13
FC(F)(F)c1ccc(OC(CCN2CCN(c3ncccn3)CC2)c2ccccc2)cc1 (centres undefined) |  | 1600 | 1600
O=C(CCN1CCN(c2cccc3ccccc23)CC1)c1csc2ccccc12 |  | 500 | 100

Structure (SMILES) | Ki [1] [nM] | Ki [2] [nM] | Ki ([1]; read-out: Ki) [nM]
Cc1cc(C(O)CCN2CCN(c3ccccc3O)CC2)c(C)s1 (centres undefined) | 90 | 2500 | 
COc1ccc(C(CCN2CCN(c3ccccc3OC)CC2)Oc2ccc(C(F)(F)F)cc2)cc1 (centres undefined) |  | 650 | 1000
O=C(CCN1CCN(c2ccc(Cl)cc2)CC1)c1csc2ccccc12 |  | 5000 | > 5000
OC(CCN1CCN(c2ccc(Cl)cc2)CC1)c1ccsc1 (centres undefined) |  | 200 | 
OC(CCN1CCN(c2ncccn2)CC1)c1ccccc1 (centres undefined) | 375 | > 5000 | 
FC(F)(F)c1ccc(OC(CCN2CCN(c3ccccc3Cl)CC2)c2ccccc2)cc1 (centres undefined) |  | > 5000 | > 5000
OC(CCN1CCN(c2ccc(Cl)cc2)CC1)c1ccc2ccccc2c1 (centres undefined) |  | 10 | > 5000
COc1ccccc1N1CCN(CCC(Oc2ccc3c(c2)OCO3)c2ccsc2)CC1 (centres undefined) | 55 | 6500 | 
FC(F)(F)c1ccc(OC(CCN2CCN(c3ccccn3)CC2)c2ccccc2)cc1 (centres undefined) |  | 1500 | 
OC(CCN1CCN(c2ccc(Cl)cc2)CC1)c1ccccc1 (centres undefined) |  | 350 | 800
COc1cc(F)ccc1N1CCN(CCC(O)c2csc3ccccc23)CC1 (centres undefined) |  | 12 | 500
COc1ccc(N2CCN(CCC(Oc3ccc(C(F)(F)F)cc3)c3ccccc3)CC2)cc1 (centres undefined) |  | > 5000 | > 5000
OC(CCN1CCN(c2ccc(Cl)cc2)CC1)c1csc2ccccc12 (centres undefined) |  | 50 | 5000
O=C(CCN1CCN(c2ncccn2)CC1)c1ccccc1 | 120 | > 5000 | 
Cc1cc(C(=O)CCN2CCN(c3cccc4ccccc34)CC2)c(C)s1 |  | 370 | 100
OC(CCN1CCN(c2ccccc2Cl)CC1)c1ccsc1 (centres undefined) |  | > 5000 | 200
COc1cc(Cl)ccc1N1CCN(CCC(=O)c2cc(C)sc2C)CC1 |  | 275 | 500
COc1ccccc1N1CCN(CCC(Oc2ccc3c(c2)OCO3)c2ccccc2)CC1 (centres undefined) |  | 500 | 20
OC(CCN1CCN(c2ccccn2)CC1)c1ccccc1 (centres undefined) | 155 | > 5000 | 
COc1ccccc1N1CCN(CCC(Oc2ccc(C(F)(F)F)cc2)c2ccccc2)CC1 (centres undefined) | 450 | 650 | 
O=[N+]([O-])c1ccc(N2CCN(CCC(O)c3ccccc3)CC2)cc1 (centres undefined) |  | 1150 | > 5000
COc1ccc(OC(CCN2CCN(c3ccc(Cl)cc3)CC2)c2ccccc2)cc1 (centres undefined) |  | 500 | 1450

The remaining lines, values ahead:

Ki [1] [nM] | Ki [2] [nM] | Ki ([1]; read-out: Ki) [nM] | Structure (SMILES)
3650 | 700 |  | COc1ccccc1N1CCN(CCC(=O)c2ccc(-c3ccccc3)cc2)CC1
 | 300 | 800 | O=C(CCN1CCN(c2ccc(Cl)cc2)CC1)c1ccccc1
 | > 5000 | 10 | COc1ccccc1N1CCN(CCC(=O)c2cccs2)CC1
 | 1000 | 250 | COc1ccccc1N1CCN(CCC(=O)c2ccc3ccccc3c2)CC1
115 | > 5000 |  | OC(CCN1CCN(c2ccccc2Cl)CC1)c1ccccc1 (centres undefined)
 | 5000 | 85 | COc1ccccc1N1CCN(CC/C(=N\O)c2cc(C)sc2C)CC1
47.5 | > 5000 |  | COc1ccccc1N1CCN(CCC(O)c2ccccc2)CC1 (centres undefined)
420 | 380 |  | COc1ccccc1N1CCN(CCC(O)c2ccc3ccccc3c2)CC1 (centres undefined)
325 | 500 |  | COc1ccc(C(O)CCN2CCN(c3ccccc3OC)CC2)cc1 (centres undefined)
19 | 1250 |  | COc1ccccc1N1CCN(CCC(O)c2cccs2)CC1 (centres undefined)
 | > 5000 | 50 | O=C(CCN1CCN(c2ccccn2)CC1)c1ccccc1
 | 2500 | 1000 | O=C(CCN1CCN(c2ccccc2O)CC1)c1ccc2ccccc2c1
850 | 175 |  | COc1ccccc1N1CCN(CCC(O)c2ccc(-c3ccccc3)cc2)CC1 (centres undefined)
6.5 | 950 |  | COc1ccccc1N1CCN(CC/C(=N\O)c2ccsc2)CC1
 | 1350 | 5 | COc1ccccc1N1CCN(CCC(=O)c2cc(C)sc2C)CC1
 | 5000 | > 5000 | O/N=C(\CCN1CCN(c2ccc(Cl)cc2)CC1)c1ccccc1

Ki [1] [nM] | Ki [2] [nM] | Ki ([1]; read-out: Ki) [nM] | Structure (SMILES)
 | > 5000 | 800 | O=C(CCN1CCN(c2ccc(F)cc2)CC1)c1ccccc1
 | > 5000 |  | COc1ccccc1N1CCN(CCC(=O)c2ccccc2)CC1
 | > 5000 | 180 | O=C(CCN1CCN(c2ccccc2Cl)CC1)c1ccccc1
17.5 | 5000 |  | COc1ccccc1N1CCN(CC/C(=N\O)c2ccccc2)CC1
 | > 5000 |  | COc1ccc(C(=O)CCN2CCN(c3ccccc3OC)CC2)cc1
110 | 490 |  | O=C(CCN1CCN(c2ccccc2O)CC1)c1csc2ccccc12
 | > 5000 | 130 | COc1ccccc1N1CCN(CC/C(=N/O)c2cc(C)sc2C)CC1
34 | 5000 |  | COc1ccccc1N1CCN(CCC(O)c2ccc(C)s2)CC1 (centres undefined)
 | 385 | 50 | COc1ccccc1N1CCN(CCC(O)c2ccsc2)CC1 (centres undefined)
 | 2500 | 10 | COc1ccccc1N1CCN(CCC(O)c2ccc([N+](=O)[O-])cc2)CC1 (centres undefined)
 | > 5000 | 50 | COc1ccccc1N1CCN(CCC(=O)c2ccc([N+](=O)[O-])cc2)CC1
340 | > 5000 |  | COc1ccccc1N1CCN(CCC(=O)c2ccc([N+](=O)[O-])s2)CC1
90 | 1450 |  | COc1ccc(OC(CCN2CCN(c3ccccc3OC)CC2)c2ccccc2)cc1 (centres undefined)
 | > 5000 | 17.5 | COc1ccccc1N1CCN(CCC(=O)c2ccc(C)s2)CC1
 | 5000 | 75 | COc1ccccc1N1CCN(CC/C(=N/O)c2ccc(C)s2)CC1
 | > 5000 | 5000 | COc1ccc(N2CCN(CCC(=O)c3ccccc3)CC2)cc1

From ChEMBL document CHEMBL1134339, “New 1-aryl-3-(4-arylpiperazin-1-yl)propane derivatives, with dual action at 5-HT1A serotonin receptors and serotonin transporter, as a new class of antidepressants” (J Med Chem, 2001)
